Calls of active or inactive are those of the source. No cut-off for these calls is given here. Where only a bound is given, the exact number is not on record here.

Consider 2 compounds from ChEMBL document CHEMBL4673225, “Highly Selective PTK2 Proteolysis Targeting Chimeras to Probe Focal Adhesion Kinase Scaffolding Functions” (J Med Chem, 2019).

Experiment [1] has as its target T1, Protein cereblon/Focal adhesion kinase 1 (Homo sapiens, UniProt Q05397+Q96SW2). The experiment is described as follows: Protac activity at CRBN/PTK2 in human Hep3B2.1-7 cells assessed as induction of PTK2 degradation incubated for 18 hrs in presence of Cyclosporine A by protein capillary electrophoresis method relative to control. To be noted: Hep3B. Type of experiment: cell-based.
Target sequence in this assay (Q05397 2-1052 limits assumed): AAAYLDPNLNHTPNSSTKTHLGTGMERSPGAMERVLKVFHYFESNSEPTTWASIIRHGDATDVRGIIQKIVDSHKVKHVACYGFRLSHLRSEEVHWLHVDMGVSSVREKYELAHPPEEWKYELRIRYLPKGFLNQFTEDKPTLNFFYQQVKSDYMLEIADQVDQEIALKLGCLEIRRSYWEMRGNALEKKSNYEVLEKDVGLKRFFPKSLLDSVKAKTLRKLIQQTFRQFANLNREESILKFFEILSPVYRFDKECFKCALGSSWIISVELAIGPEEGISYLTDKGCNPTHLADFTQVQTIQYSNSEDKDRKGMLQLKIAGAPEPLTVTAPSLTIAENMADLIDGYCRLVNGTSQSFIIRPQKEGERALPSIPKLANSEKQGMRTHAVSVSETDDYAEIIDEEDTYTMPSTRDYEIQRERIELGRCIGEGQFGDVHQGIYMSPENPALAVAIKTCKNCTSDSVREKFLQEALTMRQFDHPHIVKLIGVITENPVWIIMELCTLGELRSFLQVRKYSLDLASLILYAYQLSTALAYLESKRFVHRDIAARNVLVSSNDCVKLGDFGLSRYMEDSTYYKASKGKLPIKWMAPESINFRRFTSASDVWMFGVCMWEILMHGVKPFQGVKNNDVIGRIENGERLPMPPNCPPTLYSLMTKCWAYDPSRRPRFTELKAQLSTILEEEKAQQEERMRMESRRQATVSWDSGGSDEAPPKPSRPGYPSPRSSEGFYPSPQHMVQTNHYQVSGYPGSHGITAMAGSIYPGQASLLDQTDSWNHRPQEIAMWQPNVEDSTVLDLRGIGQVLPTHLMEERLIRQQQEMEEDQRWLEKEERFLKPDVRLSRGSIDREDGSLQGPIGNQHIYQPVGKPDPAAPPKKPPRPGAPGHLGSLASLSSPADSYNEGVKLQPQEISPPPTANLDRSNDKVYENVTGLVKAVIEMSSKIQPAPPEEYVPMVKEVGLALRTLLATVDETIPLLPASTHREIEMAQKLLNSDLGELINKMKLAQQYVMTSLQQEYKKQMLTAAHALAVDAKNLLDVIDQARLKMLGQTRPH
Target sequence in this assay (Q96SW2 whole entry partner): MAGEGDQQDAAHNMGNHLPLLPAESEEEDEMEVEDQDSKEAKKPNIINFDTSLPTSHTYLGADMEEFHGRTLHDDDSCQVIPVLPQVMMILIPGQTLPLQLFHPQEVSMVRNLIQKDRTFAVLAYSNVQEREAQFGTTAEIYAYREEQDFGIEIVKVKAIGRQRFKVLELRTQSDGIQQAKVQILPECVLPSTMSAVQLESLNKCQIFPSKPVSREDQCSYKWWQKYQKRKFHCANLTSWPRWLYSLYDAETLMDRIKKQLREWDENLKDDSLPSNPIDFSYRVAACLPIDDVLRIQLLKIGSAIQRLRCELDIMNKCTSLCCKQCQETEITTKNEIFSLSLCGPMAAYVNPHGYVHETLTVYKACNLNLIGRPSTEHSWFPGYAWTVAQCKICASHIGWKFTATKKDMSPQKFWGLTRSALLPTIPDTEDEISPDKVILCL

The target in experiment [2] is T1, Protein cereblon/Focal adhesion kinase 1. The experiment in a line: Protac activity at CRBN/PTK2 in human SNU-398 cells assessed as induction of PTK2 degradation incubated for 18 hrs by protein capillary electrophoresis method relative to control. Type of experiment: cell-based.
Target sequence in this assay (Q05397 2-1052 limits assumed): as the sequence (Q05397 2-1052 limits assumed) above
Target sequence in this assay (Q96SW2 whole entry partner): as the sequence (Q96SW2 whole entry partner) above
The target is the same in experiment [3]. The experiment is described as follows: Protac activity at CRBN/PTK2 in human HuH-1 cells assessed as induction of PTK2 degradation incubated for 18 hrs by protein capillary electrophoresis method. Format: cell-based.
Target sequence in this assay (Q05397 whole entry): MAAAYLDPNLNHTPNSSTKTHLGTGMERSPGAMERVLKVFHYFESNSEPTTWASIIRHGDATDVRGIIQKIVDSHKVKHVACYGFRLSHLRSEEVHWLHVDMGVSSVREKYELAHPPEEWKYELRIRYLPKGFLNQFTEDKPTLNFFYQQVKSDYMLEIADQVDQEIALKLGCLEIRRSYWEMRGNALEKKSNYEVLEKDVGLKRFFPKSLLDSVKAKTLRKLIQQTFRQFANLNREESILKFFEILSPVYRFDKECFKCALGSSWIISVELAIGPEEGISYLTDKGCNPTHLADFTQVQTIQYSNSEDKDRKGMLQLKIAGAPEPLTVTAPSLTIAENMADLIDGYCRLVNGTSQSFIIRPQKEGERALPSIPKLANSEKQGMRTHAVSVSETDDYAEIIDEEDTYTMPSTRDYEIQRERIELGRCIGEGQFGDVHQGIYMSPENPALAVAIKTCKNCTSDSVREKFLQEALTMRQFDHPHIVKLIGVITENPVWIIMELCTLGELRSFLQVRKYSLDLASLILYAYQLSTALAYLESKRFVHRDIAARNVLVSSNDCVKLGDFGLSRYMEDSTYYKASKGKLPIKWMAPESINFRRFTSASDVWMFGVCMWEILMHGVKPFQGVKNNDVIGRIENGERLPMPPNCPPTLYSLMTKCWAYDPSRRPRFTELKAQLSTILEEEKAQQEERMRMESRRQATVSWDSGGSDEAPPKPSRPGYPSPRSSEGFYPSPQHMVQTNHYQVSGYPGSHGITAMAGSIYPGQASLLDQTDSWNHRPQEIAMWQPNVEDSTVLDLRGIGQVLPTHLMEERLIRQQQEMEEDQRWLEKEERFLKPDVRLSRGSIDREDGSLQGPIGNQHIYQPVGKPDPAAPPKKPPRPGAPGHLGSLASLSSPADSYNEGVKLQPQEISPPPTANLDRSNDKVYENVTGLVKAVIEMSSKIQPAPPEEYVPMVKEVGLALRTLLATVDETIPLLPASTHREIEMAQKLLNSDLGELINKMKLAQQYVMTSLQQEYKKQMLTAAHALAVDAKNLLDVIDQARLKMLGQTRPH
Target sequence in this assay (Q96SW2 whole entry): as the sequence (Q96SW2 whole entry partner) above
For experiment [4] the target is unchanged. The experiment in a line: Protac activity at CRBN/PTK2 in human HLE cells assessed as induction of PTK2 degradation incubated for 18 hrs by protein capillary electrophoresis method. Type of experiment: cell-based.
Target sequence in this assay (Q05397 whole entry): as the sequence (Q05397 whole entry) above
Target sequence in this assay (Q96SW2 whole entry): as the sequence (Q96SW2 whole entry partner) above
The target is the same in experiment [5]. The experiment in a line: Protac activity at CRBN/PTK2 in human SNU-398 cells assessed as induction of PTK2 degradation incubated for 18 hrs by protein capillary electrophoresis method. Type of experiment: cell-based.
Target sequence in this assay (Q05397 whole entry): as the sequence (Q05397 whole entry) above
Target sequence in this assay (Q96SW2 whole entry): as the sequence (Q96SW2 whole entry partner) above
Experiment [6] has the same target. The experiment is described as follows: Protac activity at CRBN/PTK2 in human A549 cells assessed as induction of PTK2 degradation incubated for 18 hrs by protein capillary electrophoresis method relative to control. Format: cell-based.
Target sequence in this assay (Q05397 2-1052 limits assumed): as the sequence (Q05397 2-1052 limits assumed) above
Target sequence in this assay (Q96SW2 whole entry partner): as the sequence (Q96SW2 whole entry partner) above
Experiment [7] shares this target. The experiment is described as follows: Protac activity at CRBN/PTK2 in human SK-HEP1 cells assessed as induction of PTK2 degradation incubated for 18 hrs by protein capillary electrophoresis method. Format: cell-based.
Target sequence in this assay (Q05397 whole entry): as the sequence (Q05397 whole entry) above
Target sequence in this assay (Q96SW2 whole entry): as the sequence (Q96SW2 whole entry partner) above
Experiment [8] shares this target. The experiment in a line: Protac activity at CRBN/PTK2 in human SNU-423 cells assessed as induction of PTK2 degradation incubated for 18 hrs by protein capillary electrophoresis method. Type of experiment: cell-based.
Target sequence in this assay (Q05397 whole entry): as the sequence (Q05397 whole entry) above
Target sequence in this assay (Q96SW2 whole entry): as the sequence (Q96SW2 whole entry partner) above
Experiment [9] deals with T2, von Hippel-Lindau disease tumor suppressor/Focal adhesion kinase 1 (Homo sapiens, UniProt Q05397+P40337). The experiment in a line: Protac activity at VHL/PTK2 in human HuCCT-1 cells assessed as induction of PTK2 degradation incubated for 18 hrs by protein capillary electrophoresis method. Type of experiment: cell-based.
Target sequence in this assay (Q05397 whole entry): as the sequence (Q05397 whole entry) above
Target sequence in this assay (P40337 whole entry): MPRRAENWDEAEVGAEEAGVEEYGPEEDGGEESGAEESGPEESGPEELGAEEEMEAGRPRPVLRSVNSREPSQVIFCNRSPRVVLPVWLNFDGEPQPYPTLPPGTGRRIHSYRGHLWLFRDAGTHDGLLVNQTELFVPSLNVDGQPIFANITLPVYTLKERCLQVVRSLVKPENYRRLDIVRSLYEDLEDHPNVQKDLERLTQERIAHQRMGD
In experiment [10] the target is T2, von Hippel-Lindau disease tumor suppressor/Focal adhesion kinase 1. The experiment is described as follows: Protac activity at VHL/PTK2 in human A549 cells assessed as induction of PTK2 degradation at 1 to 100000 nM incubated for 18 hrs in presence of NEDD8 inhibitor […] by protein capillary electrophoresis method. Type of experiment: cell-based. The settings on record: dose 1-100000 nM.

For experiment [11] the target is unchanged. The experiment in a line: Protac activity at VHL/PTK2 in human Hep3B2.1-7 cells assessed as induction of PTK2 degradation incubated for 18 hrs in presence of Cyclosporine by protein capillary electrophoresis method relative to control. Type of experiment: cell-based. The settings on record: Hep3B.
Experiment [12] shares this target. The experiment in a line: Protac activity at VHL/PTK2 in human A549 cells assessed as time required for maximal induction of PTK2 degradation at 3 uM by protein capillary electrophoresis method. Format: cell-based.
Experiment [13] shares this target. The experiment in a line: Protac activity at VHL/PTK2 in human HLE cells assessed as induction of PTK2 degradation incubated for 18 hrs by protein capillary electrophoresis method relative to control. Type of experiment: cell-based.
Experiment [14] has the same target. The experiment is described as follows: Protac activity at VHL/PTK2 in human SNU-387 cells assessed as induction of PTK2 degradation incubated for 18 hrs by protein capillary electrophoresis method relative to control. Format: cell-based.
The target is the same in experiment [15]. The experiment in a line: Protac activity at VHL/PTK2 in human SNU-423 cells assessed as induction of PTK2 degradation incubated for 18 hrs by protein capillary electrophoresis method relative to control. Format: cell-based.
The next experiment addresses Focal adhesion kinase 1 (Homo sapiens, UniProt Q05397). The experiment is described as follows: Inhibition of PTK2 (unknown origin) at 1 uM relative to control.
Experiment [16] has as its target T2, von Hippel-Lindau disease tumor suppressor/Focal adhesion kinase 1. The experiment is described as follows: Protac activity at VHL/PTK2 in human HuH-1 cells assessed as induction of PTK2 degradation incubated for 18 hrs by protein capillary electrophoresis method. Format: cell-based.
Target sequence in this assay (Q05397 whole entry): as the sequence (Q05397 whole entry) above
Target sequence in this assay (P40337 whole entry): as the sequence (P40337 whole entry) above
The target is the same in experiment [17]. The experiment is described as follows: Protac activity at VHL/PTK2 in human SK-HEP1 cells assessed as induction of PTK2 degradation incubated for 18 hrs by protein capillary electrophoresis method. Format: cell-based.
Target sequence in this assay (Q05397 whole entry): as the sequence (Q05397 whole entry) above
Target sequence in this assay (P40337 whole entry): as the sequence (P40337 whole entry) above

The term Emax denotes the size of the effect at its maximum, as opposed to the concentration needed. As to `COc1cc(C(=O)NCCOCCOCCOCCC(=O)Nc2cccc3c2C(=O)N(C2CCC(=O)NC2=O)C3=O)ccc1Nc1ncc(C(F)(F)F)c(Oc2cccc3c2C(=O)CC3)n1` (stereo not drawn), the Emax in experiment [1] came out at 94%; in experiment [2], 95%; in experiment [6], 95%. The pDC50 in [3] was 6.6; in experiment [4], 6.8; in experiment [5], 8.5; in [7], 7.5; in [8] it was 7.9.

Usually inhibition stands for the relative decrease from the control value, in per cent. A lower inhibition goes with a weak effect. Take `COc1cc(C(=O)NCCOCCOCCOCC(=O)N[C@H](C(=O)N2C[C@H](O)C[C@H]2C(=O)NCc2ccc(-c3scnc3C)cc2)C(C)(C)C)ccc1Nc1ncc(C(F)(F)F)c(Oc2cccc3c2C(=O)CC3)n1`: the pDC50 in experiment [9] is listed as 6.9; in [16], 7.1; in experiment [17], 6.9. The result in [10] was inactive. Moreover, the Emax in experiment [11] was determined as 88%; in experiment [13], 85%; in experiment [14], 98%; in [15], 87%. Further, in [12], the TIME was determined as 72 h. Also, the inhibition against Focal adhesion kinase 1 is > 90%.
